Laboratory results as given in patent US20260274814A1, “THIENYL COMPOUNDS FOR THE TREATMENT OF A CENTRAL NERVOUS SYSTEM DISEASE OR DISORDER” (Coreterra Therapeutics, Inc., priority 2023, published 2026).
Counter-ions that a name gives are not always drawn. Like-named read-outs stand apart in the source and are kept apart here.

System: mice
Test: Neuropharmacological Assay (SmartCube): automated behavioral signature of compound-treated mice compared with a database of reference drug classes
Format: in vivo
Settings: for MED (minimal effective dose) / minimal effective dose / MED: i.p., that dose is shown; for minimal effective dose: Mus musculus, ip
Method in brief: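 Dose-response work typically spanned 0.3–10 mpk, widened or narrowed to obtain a full curve, with i.p. administration 15 min pre-test. MED is defined as the dose producing ≥45% total SmartCube activity; single-dose entries list the tested dose.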

[1] = dose having 45% or more total activity in SmartCube, if only one dose was tested
[2] = probability that activity matches this class of agents, 3.0 mg/kg i.p., 15 min before test
[3] = probability that activity matches this class of agents, 3.0 mg/kg i.p., 15 min before test, hydrochloride, 3 mg/kg
[4] = minimal effective dose: dose having 45% or more total activity in SmartCube, if only one dose tested, read-out: MED
[5] = SmartCube class probability, 3.0 mg/kg i.p., 15 min before test
[6] = SmartCube class probability, 3.0 mg/kg i.p., 15 min before test, hydrochloride, 3 mg/kg
[7] = minimal effective dose: dose having 45% or more total activity in SmartCube, if only one dose was tested, read-out: MED
[8] = SmartCube probability class, 3.0 mg/kg dose, i.p. 15 min before the behavioral test
[9] = minimal effective dose: dose having 45% or more total activity in SmartCube, if only one dose tested, hydrochloride

CNC1CCc2cc(C#N)sc2C1 (single isomer, unassigned) [Compound 37, 6-(methylamino)-4,5,6,7-tetrahydrobenzothiophene-2-carbonitrile hydrochloride]
MED (minimal effective dose) [1]: 3.0 mpk | AD [2]: ND (^ <4%) | AG [2]: ND (^ <4%) | AN [2]: ND (^ <4%) | AX [2]: ND (^ <4%) | CE [2]: ND (^ <4%) | HL [2]: ND (^ <4%) | MS [2]: ND (^ <4%) | PS [2]: ND (^ <4%) | SH [2]: ND (^ <4%) | AP [3]: ND (^ <4%) | UK [3]: +++ (≥49%)

CNC1(C)CCc2c(csc2C)C1 (single isomer, unassigned) [Compound 149, N, 1,5-trimethyl-6,7-dihydro-4H-2-benzothiophen-5-amine hydrochloride]
minimal effective dose [4]: 3 mg/kg | AD [5]: ND (^ <4%) | AG [5]: ND (^ <4%) | AN [5]: ND (^ <4%) | AP [5]: ND (^ <4%) | AX [5]: ND (^ <4%) | CE [5]: ND (^ <4%) | MS [5]: ND (^ <4%) | SH [5]: ND (^ <4%) | UK [5]: ND (^ <4%) | HL [6]: + (≥4%) | PS [6]: ++++ (≥74%)

CNC1CCc2cscc2C1.Cl (single isomer, unassigned) [Compound 14, N-methyl-4,5,6,7-tetrahydro-2-benzothiophen-5-amine hydrochloride]
MED (minimal effective dose) [1]: 0.3 mpk | AG [2]: ND (^ <4%) | AN [2]: ND (^ <4%) | AX [2]: + (≥4%) | HL [2]: ND (^ <4%) | MS [2]: ND (^ <4%) | PS [2]: ND (^ <4%) | SH [2]: ND (^ <4%) | UK [2]: ND (^ <4%) | AD [3]: ++ (≥24%) | AP [3]: + (≥4%) | CE [3]: ND (^ <4%)

CCc1csc2c1CC(NC)CC2 (single isomer, unassigned) [Compound 251, 3-ethyl-N-methyl-4,5,6,7-tetrahydrobenzothiophen-5-amine hydrochloride]
minimal effective dose [4]: > 3 mg/kg | AD [5]: ND (^ <4%) | AG [5]: ND (^ <4%) | AN [5]: ND (^ <4%) | AX [5]: ND (^ <4%) | HL [5]: ND (^ <4%) | MS [5]: ND (^ <4%) | SH [5]: ND (^ <4%) | AP [6]: ND (^ <4%) | UK [6]: ++ (≥24%)

CNC1(C)COc2cc(C)sc2C1 (stereo not drawn) [Compound 285, N, 2,6-trimethyl-5,7-dihydrothieno[3,2-b]pyran-6-amine hydrochloride]
minimal effective dose [7]: 3 mg/kg | AD [8]: ND (^ <4%) | AG [8]: ND (^ <4%) | AN [8]: ND (^ <4%) | AP [8]: ND (^ <4%) | AX [8]: ND (^ <4%) | CE [8]: ND (^ <4%) | HL [8]: ND (^ <4%) | MS [8]: ND (^ <4%) | PS [8]: ND (^ <4%) | SH [8]: ND (^ <4%) | UK [8]: +++ (≥49%)

CNC1CCc2cc(Cl)sc2C1 (stereo not drawn) [Compound 96, 2-chloro-N-methyl-4,5,6,7-tetrahydrobenzothiophen-6-amine hydrochloride]
minimal effective dose (dose having 45% or more total activity in SmartCube, if only one dose was tested, read-out: MED (minimal effective dose)): 3 mg/kg | AD [2]: ND (^ <4%) | AG [2]: ND (^ <4%) | AN [2]: ND (^ <4%) | AP [2]: +++ (≥49%) | AX [2]: ND (^ <4%) | CE [2]: ND (^ <4%) | HL [2]: ND (^ <4%) | MS [2]: ND (^ <4%) | PS [2]: ND (^ <4%) | SH [2]: ND (^ <4%) | UK [2]: ND (^ <4%)

CNC1(C)COc2ccsc2C1 (stereo not drawn) [Compound 266, N, 6-dimethyl-5,7-dihydrothieno[3,2-b]pyran-6-amine formate salt]
minimal effective dose [4]: > 3 mg/kg | AD [5]: ND (^ <4%) | AG [5]: ND (^ <4%) | AN [5]: ND (^ <4%) | AP [5]: ND (^ <4%) | AX [5]: ND (^ <4%) | CE [5]: ND (^ <4%) | MS [5]: ND (^ <4%) | PS [5]: ND (^ <4%) | SH [5]: ND (^ <4%) | UK [5]: + (≥4%)

CNC1CCc2sccc2C1.Cl (single isomer, unassigned) [Compound 12, N-methyl-4,5,6,7-tetrahydrobenzothiophen-5-amine hydrochloride]
MED (minimal effective dose) (dose having 45% or more total activity in SmartCube, if only one dose was tested, hydrochloride): 1.0 mpk | AG [2]: ND (^ <4%) | AN [2]: ND (^ <4%) | CE [2]: ND (^ <4%) | HL [2]: ND (^ <4%) | MS [2]: ND (^ <4%) | PS [2]: ND (^ <4%) | SH [2]: ND (^ <4%) | UK [2]: ND (^ <4%) | AD [3]: ++ (≥24%) | AP [3]: + (≥4%) | AX [3]: ++ (≥24%)

CC1(N)CCc2cscc2C1.Cl (single isomer, unassigned) [Compound 123, 5-methyl-6,7-dihydro-4H-2-benzothiophen-5-amine hydrochloride]
MED (minimal effective dose) [1]: 1 mpk | AG [2]: ND (^ <4%) | AN [2]: ND (^ <4%) | AP [2]: ND (^ <4%) | CE [2]: ND (^ <4%) | MS [2]: ND (^ <4%) | SH [2]: ND (^ <4%) | UK [2]: ND (^ <4%) | AD [3]: + (≥4%) | AX [3]: ND (^ <4%) | HL [3]: ++ (≥24%) | PS [3]: ++ (≥24%)

c1scc2c1CCC(NCC1CC1)C2 (single isomer, unassigned) [Compound 159, N-(cyclopropylmethyl)-4,5,6,7-tetrahydro-2-benzothiophen-5-amine hydrochloride]
AD [5]: ND (^ <4%) | AG [5]: ND (^ <4%) | AN [5]: ND (^ <4%) | AP [5]: ND (^ <4%) | CE [5]: ND (^ <4%) | HL [5]: ND (^ <4%) | MS [5]: ND (^ <4%) | PS [5]: ND (^ <4%) | SH [5]: ND (^ <4%) | AX [6]: ND (^ <4%) | UK [6]: + (≥4%) | MED [9]: >3 mpk

NC1CCc2c(F)csc2C1 (stereo not drawn) [Compound 209, 3-fluoro-4,5,6,7-tetrahydrobenzothiophen-6-amine hydrochloride]
minimal effective dose [4]: < 3 mg/kg | AD [5]: ++ (≥24%) | AG [5]: ND (^ <4%) | AN [5]: ND (^ <4%) | AP [5]: + (≥4%) | AX [5]: +++ (≥49%) | CE [5]: + (≥4%) | HL [5]: ND (^ <4%) | MS [5]: ND (^ <4%) | PS [5]: ND (^ <4%) | SH [5]: ND (^ <4%) | UK [5]: ND (^ <4%)

N#Cc1scc2c1CC(N)CC2 (single isomer, unassigned) [Compound 312, 6-amino-4,5,6,7-tetrahydro-2-benzothiophene-1-carbonitrile hydrochloride]
minimal effective dose [7]: 3 mg/kg | AD [8]: ND (^ <4%) | AG [8]: ND (^ <4%) | AN [8]: ND (^ <4%) | AP [8]: ND (^ <4%) | AX [8]: ND (^ <4%) | CE [8]: ND (^ <4%) | HL [8]: ND (^ <4%) | MS [8]: ND (^ <4%) | PS [8]: ND (^ <4%) | SH [8]: ND (^ <4%) | UK (SmartCube probability class, 3.0 mg/kg dose, i.p. 15 min before the behavioral test, hydrochloride, 3 mg/kg): +++ (≥49%)

CCc1csc2c1CC(NC)CC2 (single isomer, unassigned) [Compound 252, 3-ethyl-N-methyl-4,5,6,7-tetrahydrobenzothiophen-5-amine hydrochloride]
AD [5]: ND (^ <4%) | AG [5]: ND (^ <4%) | AN [5]: ND (^ <4%) | AX [5]: ND (^ <4%) | HL [5]: ND (^ <4%) | MS [5]: ND (^ <4%) | SH [5]: ND (^ <4%) | AP [6]: + (≥4%) | CE [6]: ND (^ <4%) | PS [6]: ND (^ <4%) | UK [6]: +++ (≥49%) | MED [9]: 3 mpk
